Here are results for seven compounds from patent EP0945138A1, “Transfection particles” (Université Louis Pasteur de Strasbourg, priority 1997, dated 1999).

Common to all, as to assay type: physicochemical
Data set [1] has as its system calf thymus DNA. The data set can be described thus: UV spectroscopy of spermine or SC2 particles at raised NaCl concentration. The note with it: 76 µM DNA bases; for absorption at 330 nm as compared to the maximum optical density at 25 mM NaCl: 65 mM SC2. On the procedure:
The characterisation of the formed particles by UV spectroscopy was performed for different reasons. DNA in solution has a characteristic absorption spectrum between 240 and 310 nm. The absorption (optical density) has a maximum at 260 nm and 0 towards 310 nm. A change in DNA conformation should change the profile of the absorption spectrum. Moreover, the formation of particles results in an enhancement of the diffusion which can be perceived in UV by an enhancement of optical density.
Calf thymus DNA was complexed with spermine under conditions optimal for obtaining toroid structures as described by Naroditsky et al. (76 µM DNA bases, 65 mM spermine, 25 mM NaCl).

Data set [2] can be described thus: Determination of the critical micelle concentration (c.m.c.) with a Langmuir balance, without DNA. The note with it: for CMC / CMC without DNA: MES buffer 20 mM pH 6 containing 10 mM DTT; for c.m.c.: n-alkyl esters of cysteine by chain length, Langmuir balance, 20 mM MES buffer, pH 6. The protocol:
Clean monomolecular DNA collapse is generally expected only for detergent concentrations below the critical micelle concentration (c.m.c.). Several n-alkyl esters of cysteine were synthesized by DMAP-catalyzed dicyclohexylcarbodiimide (DCC) dehydration and their c.m.c.'s were determined with a Langmuir balance (20 mM MES buffer, pH 6), providing the following results (n-alkyl chain length / c.m.c.): dodecane / 15 µM; undecane / 80 µM; decane / 320 µM; octane /> 2000 µM. Typical working plasmid concentrations for gene delivery experiments being in the 50 µM range, the decane chain is a safe choice. The weakly basic nature of the cysteine ester primary amine function (pKa= 6.8) is insufficient for simultaneous DNA binding (which requires a protonated detergent) and reasonable thiol oxidation rates in slightly basic medium. The amine function was therefore converted into a highly basic guanidine which is known to interact strongly with DNA (C10 -CG+, Fig. 2).
(§1) i) c.m.c. of a detergent with C8, C10, C11 and C12 cysteine Measurement of the c.m.c. was acomplished with a Langmuir balance in a MES buffer (20 mM pH 6) containing 10 mM DTT. When representing the surface tension as a logarithmic function of the detergent concentration a break at the c.m.c. was observed (Fig. 10). Applying this method c.m.c.'s of the compounds having different chain length (C8, C10, C11, C12) were determined.

Data set [3] has as its system calf thymus DNA. The data set can be described thus: Determination of the c.m.c. with a Langmuir balance, buffer containing DNA. The following applies: buffer containing calf thymus DNA at 30 µM bp. The protocol: as §1
ii) c.m.c. of C10 and C11 cysteine with and without DNA. In an analogous manner as above the c.m.c. value of C10 cysteine and C11 cysteine was determined, the buffer containing calf thymus DNA at a concentration of 30 µM bp (Fig. 11A, B).

Data set [4] concerns calf thymus DNA. The data set can be described thus: Determination of thiol functions of SC2 with Ellman's reagent during DNA complexation. The following applies: after 10 min, no oxygen except that in the water.
For another data set, the system named is pCMVluc plasmid DNA. The data set can be described thus: Oxidation rate of cysteine detergent into cystine lipid (free thiol, Ellman's reagent) with and without template DNA. The following applies: 90 µM detergent, TrisHCl 15 mM pH 8.4 saturated with oxygen, with 60 µM plasmid DNA versus without. The protocol:
Oxidative detergent dimerization was expected to be prone to a template effect of DNA (Fig. 1). Fast intra-complex reaction is a key aspect to formation of small and stable particles since extensive detergent dimerization into lipid prior to DNA binding would bring the system back to a classical cationic lipid/DNA complex formation/aggregation process. Enhanced air oxidation rate was indeed observed in the presence of DNA (Fig. 3).
The stock buffer solution (TrisHCl 15 mM pH 8.4) was saturated with oxygen by three vacuum/oxygen atmosphere cycles. C10 -C^G+ was injected from a concentrated stock solution to a final concentration of 90 µM. For each time point, a 0.5 ml aliquot was removed and mixed with 0.5 ml 2XEllman's reagent. The remaining free thiol was quantitated spectrophotometrically according to Riddles et al. (1979 ). For the template experiment, pCMVluc plasmid DNA was added to a final concentration of 60 µM before addition of the detergent.
Background: In Ellman's method for cholinesterases, released thiocholine reacts with DTNB.

Another data set relates to pCMV-luc plasmid DNA. The data set can be described thus: Agarose gel electrophoresis: physical and chemical stability of the complexes. The note with it: 1% agarose gel, 40 mM Tris-acetate buffer pH 8. On the procedure: In a series of experiments, the reversibility of complex formation as well as the stability of complexed DNA towards degradation were assessed by electrophoresis (Fig. 5). […] Yet the cationic lipid/DNA particles could be destroyed either with excess sodium dodecyl sulfate detergent (SDS, lane 3) or by converting the lipid back to the original C10 -CG+ detergent with excess reducing dithiothreitol (DTT, lane 4). Serum nucleases present in cell culture medium rapidly degrade supercoiled plasmid DNA (lanes 1 and 8) into a smear of fragments with many nicks (lane 5).
1% agarose gel electrophoresis (90 min at 8 V/cm in 40 mM Tris-acetate buffer pH 8) of 20 µl samples containing 0.4 µg (lanes 1-4) or 0.2 µg (lanes 5-8) pCMV-luc plasmid DNA. Complexes were made by addition of a 100-fold concentrated C10 -C^G+ detergent solution (90 µM final concentration) to a solution of plasmid (60 µM) in HEPES buffer (15 mM, pH 7.4). The solution was gently mixed once and left to oxydize for 24 h. Lane 1: 60 µM plasmid DNA. Lane 2: 60 µM oxydized (C10 -C^G+)2/DNA complexes. Lane 3: as lane 2 in 3 mM final sodium dodecylsulfate before loading. Lane 4: as lane 2 in 6 mM dithiothreitol before loading. Lane 5: 60 µM plasmid incubated for 1 h at 37 °C with an equivalent volume of DMEM cell culture medium containing 10% serum. Lane 6: 60p µ M oxydized (C10 -C^G+)2/DNA complexes incubated as lane 5. […]

Consider `NCCCNCCCCNCCCN` [spermine, reference compound], for which the “observed UV spectrum after raising NaCl” value in the data set on calf thymus DNA [1] (NaCl raised to 100 mM, 65 mM spermine) is reported as “identical with the spectrum of the DNA that had been observed before complexation with spermine”.
With `CCCCCCCCCCOC(=O)[C@@H](N)CS` [C10], in data set [2], the CMC came to 320 µM, the “CMC without DNA” value is given as 320 µM and the c.m.c. is 320 µM. Moreover, the “CMC with DNA” value with calf thymus DNA [3] was 50 µM.
In the case of `CCCCCCCCCCCOC(=O)[C@@H](N)CS` [C11], in data set [2], the CMC is 80 µM, the “CMC without DNA” value is 80 µM and the c.m.c. amounted to 80 µM. For the same compound, the “CMC with DNA” value in the data set with calf thymus DNA [3] is listed as 32 µM.
In data set [2], `CCCCCCCCCCCCOC(=O)[C@@H](N)CS` [C12] yielded a CMC of 15 µM and a c.m.c. of 15 µM.
In the data set on calf thymus DNA [4], `NC(CS)C(=O)NCCCNCCCCNCCCNC(=O)C(N)CS` (stereo not drawn) [SC2, spermine-N1, N12-bis-cysteineamide] returned a thiol groups oxydised of 50%. Besides, the “absorption at 330 nm as compared to the maximum optical density at 25 mM NaCl” value with calf thymus DNA [1] (at 100 mM NaCl, raised one and a half hours after mixing) is 81%; in the data set with calf thymus DNA [1] (at 150 mM NaCl) it was 71%.
Turning to `CCCCCCCCCCNC(=O)C(CS)NC(=N)N` (stereo not drawn) [C10 -CG+, Guanidyl-cysteine-decylamide], the “oxydation rate into cystine lipid” value in the data set on pCMVluc plasmid DNA is given as “faster in the presence of template DNA”. For the same compound, the “DNA migration / stability during electrophoresis” value in the data set on pCMV-luc plasmid DNA is “unable to retard DNA migration”.
For `CCCCCCCCOC(=O)[C@@H](N)CS` [C8], in data set [2], the CMC is greater than 2000 µM and the c.m.c. is listed as greater than 2000 µM.
